{
  "source": "patent US20040037835A1",
  "about": "“Cytotoxic agents” (priority 1995, published 2004)",
  "origin": "cited, not measured here",
  "key": {"E. coli nitroreductase": {"target": "E. coli nitroreductase (Escherichia coli, UniProt P38489)", "sequence (P38489 whole entry)": "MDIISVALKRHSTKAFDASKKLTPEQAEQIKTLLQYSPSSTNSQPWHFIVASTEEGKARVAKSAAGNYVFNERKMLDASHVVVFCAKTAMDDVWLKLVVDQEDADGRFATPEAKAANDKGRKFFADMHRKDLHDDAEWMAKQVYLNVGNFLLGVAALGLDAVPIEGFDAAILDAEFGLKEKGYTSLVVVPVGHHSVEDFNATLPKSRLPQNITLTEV"}, "CHO cells": {"tested_on": "CHO cells", "details": "in vitro co-culture of Walker cells and CHO cells"}},
  "data": [
    {"smiles": "NC(=O)c1cc(N2CC2)c([N+](=O)[O-])cc1[N+](=O)[O-]", "note": "[CB 1954, 5-(aziridin-1-yl)-2,4-dinitrobenzamide]", "values": [
      {"measurement": "substrate for the enzyme", "setting": "E. coli nitroreductase", "result": "poor substrate"},
      {"measurement": "bystander effect: kill of CHO cells that do not contain nitroreductase", "setting": "CHO cells", "result": "substantially killed"}
    ]}
  ]
}
